Data from EP2653477B1, “SCORPION ACTIVE PEPTIDES AND PREPARATION METHODS AND APPLICATIONS THEREOF” (Wuhan More Biotechnology Co., Ltd., priority 2010, dated 2012).
Bridge positions count the residues as written; N and C are the ends. Peptide text beside a SMILES is read from it.

Experiments:
potassium channel Kv1.3 = biological target: T1, potassium channel Kv1.3 (Homo sapiens, UniProt P22001); experiment: whole-cell patch clamp, inhibition of Kv1.3 current in transfected COS-7 cells; assay type: cell-based; details: potassium channel Kv1.3 in COS-7 cells, read-out: polypeptide concentrations that inhibit the current by half (IC50 value)
T1 construct: expressed in transfected cells; host or cells: COS-7 cells, selected with 0.8 mg/mL geneticin
T1 sequence (P22001 whole entry): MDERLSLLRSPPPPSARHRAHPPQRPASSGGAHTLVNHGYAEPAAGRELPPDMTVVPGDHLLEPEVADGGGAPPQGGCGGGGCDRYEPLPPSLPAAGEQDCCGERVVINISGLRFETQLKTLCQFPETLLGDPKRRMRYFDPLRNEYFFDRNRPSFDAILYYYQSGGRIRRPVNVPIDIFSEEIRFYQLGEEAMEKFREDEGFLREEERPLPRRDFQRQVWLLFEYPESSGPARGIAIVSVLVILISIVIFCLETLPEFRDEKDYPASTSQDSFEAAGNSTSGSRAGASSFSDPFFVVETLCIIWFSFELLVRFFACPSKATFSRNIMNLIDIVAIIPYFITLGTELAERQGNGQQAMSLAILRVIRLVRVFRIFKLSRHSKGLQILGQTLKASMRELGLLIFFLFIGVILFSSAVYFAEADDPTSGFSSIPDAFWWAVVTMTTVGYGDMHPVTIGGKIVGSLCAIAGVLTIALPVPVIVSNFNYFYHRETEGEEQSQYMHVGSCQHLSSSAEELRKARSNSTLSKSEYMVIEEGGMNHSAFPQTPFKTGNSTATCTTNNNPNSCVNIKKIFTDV
Protocol: COS-7 cells were cultured in a DMEM medium containing 10% fetal calf serum, at 37° C, 5% CO2. The recombinant plasmids of potassium channel Kv1.3 were transfected by using a Sofast™ transfection kit, and the transfected cells were selectively cultured in a medium containing 0.8 mg/mL geneticin. The pharmacological activities of scorpion active polypeptides ADMR-011, ADMR-016, ADMR-019, ADMR-023 and ADMR-028 were tested and analyzed by using an instrument of whole-cell patch clamp (EPC-10 dual-channel patch clamp amplifier HEKA, Elektronik, Lambrecht, Germany). The setting of the experimental parameters, the collecting of data, and the applying of stimulus were all controlled by Pulse software (Elektronik, Lambrecht, Germany). The filter of the instrument was set to be 10 kHz (Bessel), and the electrode impedance was 2∼5 MΩ. After the formation of giga-seal (1∼5 GΩ) between the electrode and cell membrane, an automatic c-fast was performed, and the membrane was broken by slightly applying negative pressure, then an automatic c-slow was performed. At a holding potential of -70 mV, depolarizing pulses, incrementing in 10 mV steps, with a step width of 80 ms , were given to stimulate from -60 mV to +50 mV, and the condition of current was observed. The polypeptides ADMR-011, ADMR-016 and ADMR-019 were accurately perfused, which was achieved by MPS-2 (INBIO Inc, Wuhan, China) perfusing system. After dissolving the three scorpion active polypeptides, they were applied by spraying via DAD Drug Application System (ALA), and the tip of the tube for drug application was about 100 µm away from the cell being recorded.
It can be known from Figure 16 to Figure 20 that, the pharmacological activity of ADMR-011 on potassium channel Kvl.3 was 91 pM, the pharmacological activity of ADMR-016 on potassium channel Kvl.3 was 2.58 nM, the pharmacological activity of ADMR-019 on potassium channel Kv1.3 was 1.41 nM, and the pharmacological activity of ADMR-023 and ADMR-028 on potassium channel Kvl.3 were 0.49 nM and 0.65 nM, respectively. Therefore, they are polypeptides with potent activity that are currently found internationally.

Kunming mice = experiment: toxicity study in mice, single intraperitoneal injection, 7 days observation; assay type: in vivo; details: 10 mg/kg intraperitoneally once (100 times the dose for animal model), observed 7 days
Protocol: 18∼20 g Kunming mice were selected, and divided into 4 groups, 8 male mice and 8 female mice for each group. The lyophilized powders of scorpion active polypeptides ADMR-011, ADMR-016, ADMR-019, ADMR-023 and ADMR-028 were dissolved with normal saline respectively, and the 3 groups of mice were injected intraperitoneally once respectively with polypeptide solution at a dose of 10 mg/kg (100 times of the dose for animal model), and the fourth group were injected with equivalent amount of normal saline as control.
After the administration, the respiration, motor and heartbeat in animals of all the groups were all normal, without significant abnormal reaction. 7 days after the administration, all the animals were conducted gross anatomy to observe the volume, color and texture of the main organs (heart, liver, spleen, lung, and kidney), and there was no macroscopic lesion. There were no significant difference between the 3 administration groups and the normal saline group.

Wistar rat EAE model = experiment: EAE (multiple sclerosis) model in Wistar rats induced by GPSCH-CFA, clinical scoring; assay type: in vivo; details: 100 µg·kg^-1 subcutaneously once every day, x±s, n=10, score 0-5
Excerpt: Experimental animals: female inbred line Wistar rats (6∼8 week old, body weigh 150±10 g) and guinea pigs (300∼400 g, purchased from Wuhan University Laboratory Animal Center) were selected.
Formulating a mixed emulsion of whole spinal cord homogenate - Freund's complete adjuvant (GPSCH-CFA): a guinea pig was executed, and the spinal cord was rapidly removed, and prepared into 50% PBS homogenate by a ultrasonic disruptor (Sonics & Materials Inc, America), which was mixed with equal amount of Freund's complete adjuvant (BCG vaccine 10 mg/ml), and was pushed back and forth with syringes until forming a water-in-oil emulsion.
Wistar rat EAE model induced by EAE: GPSCH-CFA emulsion was injected intradermally into the foot pads of both the hind legs of Wistar rats, or simultaneously injected intradermally about 1×10^10 pertussis vaccine. The rats were weighed every day, and observed for their neurological symptoms. Experimental autoimmune encephalomyelitis appeared after the rats had been raised for 2 weeks.
The rats with experimental autoimmune encephalomyelitis (EAE) were divided into […] groups randomly: normal control group (negative control group), model control group (model rats + normal saline), administration group A (model rats + ADMR-011 polypeptide), administration group B (model rats + ADMR-016 polypeptide), administration group C (model rats + ADMR-019 polypeptide), administration group D (model rats + ADMR-023 polypeptide), and administration group E (model rats + ADMR-028 polypeptide), 10 rats for each group. For the administration groups, polypeptides ADMR-011, ADMR-016, ADMR-019, ADMR-023 and ADMR-028 were injected subcutaneously respectively at a dose of 100 µg·kg^-1, once every day in the morning. For the normal control group and the model control group, equivalent amount of normal saline was injected subcutaneously, and administered continuously. […] The highest clinical score for each animal was recorded, and the average value of them was taken to be the average clinical score.
The scoring criteria were: without any clinical symptom, 0 point; disappearance of tension in the tail, and observable mild awkward gait, 1 point; weakness in both the hind limbs, which can recover after passive body flipping, 2 points; paralysis in both the hind limbs, which can not recover after passive body flipping, 3 points; tetraplegia accompanied by incontinence of urine and feces, 4 points; moribund state or death, 5 points. Table 1. Scores for rats of various experimental groups in the EAE model (-x±s)

rheumatoid arthritis = experiment: pristane-induced rheumatoid arthritis in SD rats, joint score and hind foot plantar swelling; assay type: in vivo; design: key to Score of joint: clinical score 1-4: 1 joint red/swollen=1 ... severe whole-limb arthritis=4; details: x±s, n=10; for Score of joint: arthritis rats, polypeptides 100 µg·kg^-1 (methotrexate 1.75 µg·kg^-1) subcutaneously once every day, score 1-4; for The swelling degree after the inflammation: volume difference of hind foot before and after the modeling
Protocol: […] Female (♀) specific pathogen free (SPF) inbred line SD rats (Wuhan University Laboratory Animal Center), body weight 150±10 g, were selected, and pristane was injected intradermally at the base of the tail of rats in experimental groups at a dose of 0.2 ml/rat, after they were acclimatized in a clean-grade environment for 1 week. Rheumatoid arthritis appeared after the rats were raised for only 2 weeks.
The rats having arthritis were randomized into: normal control group (negative control group), model negative control group (model rat + normal saline), model positive control group (model rat + methotrexate), administration group A (model rat + ADMR-011 polypeptide), administration group B (model rat + ADMR-016 polypeptide), administration group C (model rat + ADMR-019 polypeptide), administration group D (model rat + ADMR-023 polypeptide), and administration group E (model rat + ADMR-028 polypeptide), 10 rats for each group. The administration groups were injected subcutaneously at a dose of 100 µg·kg^-1, once every day in the morning, and administered continuously; the normal control group and the model negative control group were injected subcutaneously with equivalent amount of normal saline; and the model positive control group were injected subcutaneously with methotrexate (MTX) at a dose of 1.75 µg·kg^-1, once every day, and administered continuously.
The highest clinical score for each animal was recorded, and the average value of them was taken to be the average clinical score. The scoring criteria were: one joint of a rat was red and swollen, 1 point; two joints of a rat were red and swollen, 2 points; all the joints of a rat were red and swollen, 3 points; severe arthritis in the entire limb of a rat, 4 points. Table 2. Arthritis scores for rats of various experimental groups (-x±s)
From day 8 of the experiment, the hind foot plantar volume of the rat was measured and recorded every other day for 21 consecutive days, and the swelling degree (mL) was calculated according to the volume difference before and after the modeling. Table 3. The swelling degree of rats in various experimental groups (-x±s)

CC[C@H](C)[C@H](NC(=O)CNC(=O)[C@@H](N)C(C)C)C(=O)N[C@@H](CC(N)=O)C(=O)N[C@H](C(=O)N[C@@H](CCC(N)=O)C(=O)N[C@H]1CSSC[C@@H]2NC(=O)[C@H](CCC(N)=O)NC(=O)CNC(=O)[C@H](Cc3ccccc3)NC(=O)[C@H](CCCNC(=N)N)NC(=O)[C@H](CCSC)NC(=O)CNC(=O)[C@H](C)NC(=O)[C@H](CC(=O)O)NC(=O)[C@H](CCCCN)NC(=O)[C@@H]3CSSC[C@@H](C(=O)N[C@H](C(=O)N4CCC[C@H]4C(=O)N[C@@H](CCCCN)C(=O)O)[C@@H](C)O)NC(=O)[C@H](CC(=O)O)NC(=O)[C@H](CSSC[C@H](NC(=O)[C@H](CCC(N)=O)NC(=O)[C@H](CCCNC(=N)N)NC(=O)[C@H](CO)NC(=O)CNC(=O)[C@H](CC(N)=O)NC1=O)C(=O)N[C@@H](CC(C)C)C(=O)N[C@@H](CCCCN)C(=O)N1CCC[C@H]1C(=O)N3)NC(=O)[C@H]([C@@H](C)O)NC(=O)CNC(=O)[C@H](CC(N)=O)NC(=O)[C@H]([C@@H](C)CC)NC2=O)C(C)C [ADMR-019] (H-VGINVQCNGSRQCLKPCKDAGMRFGQCINGTCDCTPK-OH; disulfide 7-27, 13-32, 17-34 (inferred); N-terminus and C-terminus assumed)
IC50 (potassium channel Kv1.3): 1.41 nM | toxicity in mice (Kunming mice): no significant toxicity | Average clinical scores (Wistar rat EAE model; 8 d): 0.53±0.16 | Average clinical scores (Wistar rat EAE model; 10 d): 0.93±0.46 | Average clinical scores (Wistar rat EAE model; 12 d): 1.19±0.51 | Average clinical scores (Wistar rat EAE model; 14 d): 1.37±0.34 | Score of joint (rheumatoid arthritis; 10 d): 1.78±0.48 | Score of joint (rheumatoid arthritis; 15 d): 2.17±0.55 | Score of joint (rheumatoid arthritis; 21 d): 1.81±0.77 | The swelling degree after the inflammation (rheumatoid arthritis; d8): 0.034 ± 0.011 mL | The swelling degree after the inflammation (rheumatoid arthritis; d15): 0.27 ± 0.07 mL | The swelling degree after the inflammation (rheumatoid arthritis; d22): 0.34 ± 0.11 mL | The swelling degree after the inflammation (rheumatoid arthritis; d28): 0.37 ± 0.13 mL

CC[C@H](C)[C@H](NC(=O)CNC(=O)[C@@H](N)C(C)C)C(=O)N[C@@H](CC(N)=O)C(=O)N[C@H](C(=O)N[C@@H](CCC(N)=O)C(=O)N[C@H]1CSSC[C@@H]2NC(=O)[C@H](CCC(N)=O)NC(=O)CNC(=O)[C@H](Cc3ccccc3)NC(=O)[C@H](CCCNC(=N)N)NC(=O)[C@H](CCSC)NC(=O)CNC(=O)[C@H](C)NC(=O)[C@H](CC(=O)O)NC(=O)[C@H](CCCCN)NC(=O)[C@@H]3CSSC[C@@H](C(=O)N[C@H](C(=O)N4CCC[C@H]4C(=O)N[C@@H](CCCCN)C(=O)O)[C@@H](C)O)NC(=O)[C@H](CC(=O)O)NC(=O)[C@H](CSSC[C@H](NC(=O)[C@H](CCC(N)=O)NC(=O)CNC(=O)[C@H](CO)NC(=O)[C@H](Cc4c[nH]cn4)NC(=O)[C@H](CC(N)=O)NC1=O)C(=O)N[C@@H](CC(C)C)C(=O)N[C@@H](CCCCN)C(=O)N1CCC[C@H]1C(=O)N3)NC(=O)[C@H](CCCCN)NC(=O)CNC(=O)[C@H](CC(N)=O)NC(=O)[C@H]([C@@H](C)CC)NC2=O)C(C)C [ADMR-023] (H-VGINVQCNHSGQCLKPCKDAGMRFGQCINGKCDCTPK-OH; disulfide 7-27, 13-32, 17-34 (inferred); N-terminus and C-terminus assumed)
IC50 (potassium channel Kv1.3): 0.49 nM | toxicity in mice (Kunming mice): no significant toxicity | Average clinical scores (Wistar rat EAE model; 8 d): 0.55±0.19 | Average clinical scores (Wistar rat EAE model; 10 d): 0.81±0.29 | Average clinical scores (Wistar rat EAE model; 12 d): 1.21±0.25 | Average clinical scores (Wistar rat EAE model; 14 d): 1.17±0.27 | Score of joint (rheumatoid arthritis; 10 d): 1.69±0.23 | Score of joint (rheumatoid arthritis; 15 d): 2.23±0.71 | Score of joint (rheumatoid arthritis; 21 d): 1.85±0.59 | The swelling degree after the inflammation (rheumatoid arthritis; d8): 0.035 ± 0.010 mL | The swelling degree after the inflammation (rheumatoid arthritis; d15): 0.25 ± 0.08 mL | The swelling degree after the inflammation (rheumatoid arthritis; d22): 0.32 ± 0.14 mL | The swelling degree after the inflammation (rheumatoid arthritis; d28): 0.29 ± 0.15 mL
